pIC50, pKi: −log10 of the molar value. Where two headings read alike, the source gives them in different places.
Tests used:
[1] = biological target: T1, prenylated protein methyltransferase (PPMTase) (Rattus norvegicus, UniProt Q9WVM4); assay: Methylation of AFC by PPMTase in rat cerebellar synaptosomal membranes; type: biochemical; conditions: for pIC50: synaptosomal membranes, FIG. 2, read-out: IC50 (concentration resulting in 50% inhibition of AFC methylation)
T1 construct: from tissue; host or cells: rat cerebellum, synaptosomal membranes
From the text: As a substrate for methylation served AFC and as the donor of methyl served [methyl-H^3] labelled AdoMet. As a source of the enzyme prenylated protein methyltransferase (PPTMase) served rat cerebellar membranes which are known to be membranes enriched with this enzyme (Ben-Baruch, Biochem. Biophys. Res. Commun., 195, 282-288. (1993)).
(§1) Charles River adult male rats were used for preparation of cerebellar synaptosomal membranes. Cerebella were removed after decapitation and homogenized in 0.32M sucrose containing 50 mM Tris-HCl pH 7.4, 3 mM EDTA, 1 mM EGTA, 5 unit/ml aprotinin and 5 μg/ml pepstatin (buffer A) to yield 10% (w/v) homogenates. Nuclear fractions were obtained by 10 min. 600×g centrifugation and synaptosomal fractions were obtained by 20 mins. 14,500×g centrifugation. Membranes of the various cell types used were prepared in the above buffer A by a 60 min. spin at 100,000×g.
Pellets were resuspended in the homogenization buffer and stored at −70° C. Methylation assays were performed at 37° C. in 50 mM Tris-HCl buffer pH 7.4, using 75-125 μg protein, 25 μM [methyl-^3H]AdoMet ([…] in DMSO) in a total volume of 50 μl. DMSO concentration in all assays was 4%.
(§2) Reactions were terminated after 10 min. by adding 500 μl chloroform methanol (1:1) and a subsequent addition of 250 μl H2O, mixing them and subsequently by phase separation. A portion of 125 μl of the chloroform phase was dried down at 40° C. and 200 μl of 1M NaOH/1% SDS solution were added thereto. The [^3H]methanol thus formed was counted by the vapor phase equilibrium method as described previously (Hakiai et al., Cell Mol. Neurobiol., 11, 415-431, (1991); Lenner et al., Cell Mol. Neurbiol., 12, 333 and 3351, (1992); Ben-Baruch et al., Biochem. Biophy. Res. Commun., 195, 282-288, (1993)). Typical background counts (i.e. counts of methylation with no AFC added) were 50-100 cpm while typical methylation counts with AFC as a substrate yielded 500 to 6000 cpm. Assays were performed in triplicate and background counts subtracted. Methylation of endogenous substrates, in intact cells, and [α-^32P] GTP-blot overlay assays and gel electrophoreses were performed as detailed previously (Hakiai et al., supra (1991); Lenner et al., supra (1993)).

[2] = biological target: T2, PPMTase (Mus musculus, UniProt Q9EQK7); assay: PPMTase activity (AFC methylation) in membranes of B16F10 melanoma cells; type: biochemical; conditions: for PPMTase activity: with inhibitor
T2 construct: PPMTase activity in membranes obtained from four different cell lines as determined by methylation of AFC; endogenous in cells; host or cells: B16F10 melanoma cell membranes
Description: as §1
Pellets were resuspended in the homogenization buffer and stored at −70° C. Methylation assays were performed at 37° C. in 50 mM Tris-HCl buffer pH 7.4, using 75-125 μg protein, 25 μM [methyl-^3H]AdoMet ([…]) as a methyl donor and 150 μM AFC as a methylation substrate (prepared as a stock solution in DMSO) in a total volume of 50 μl. DMSO concentration in all assays was 4%.
as §2
The B16F10 melanoma cells were grown in RPMI 1640/10% fetal calf serum, 2 mM glutamine and antibiotics as for the HEC1A cells, at the density of 1×10^4 cells/well. All four types of cells were used for determining the PPMTase activity using AFC as the substrate as described above for synaptosomal membrane preparation. Usually 150 μg membranal proteins were used in the assay for a 10 min. incubation time.

[3] = system: untransformed rat1 cells; assay: Growth of untransformed rat1 cells (cell counting); type: cell-based, rat; conditions: for effect on the growth of normal rat1 cells: 0.1-50 μM, 3, 7 or 10 days, FIG. 7
Description: HEC1A, V-raf-3T3 and SV40-CHE cells were grown in Dulbecco's modified Eagle medium (DMEM) containing 10% fetal calf serum (FCS), 4 mM L-glutamine, 10 μg/ml streptomycin and 10 U/ml penicillin. Rat1 and -EJ cells were grown in the same medium except that it was supplemented with 12.5 U/ml nyostatin. RB-22 cells were grown in modified DMEM (1 mM sodium pyruvate, 20 mM sodium bicarbonate)/10% FCS containing 4 mM L-glutamine, […] streptomycin, 10 U/ml penicillin. PC-12 cells were grown in DMEM 15% FCS/5% horse serum and the above noted antibiotics.
HEC1A cells were plated in 24 well plates at a density of 5×10^3 cells per well and fed with 1 ml of medium. The cells were grown at 37° C. in a humidified atmosphere of 95%/5% air/CO2. All other cell types employed were plated in 24 well plates at a density of 2×10^3 cells per well and fed with the appropriate medium.
Cultures were treated with farnesyl derivatives or with solvent either 3 hrs following plating or one day after plating as indicated. The drugs were prepared in DMSO to yield the final desired drug (0.1-50 μM) concentration and 0.1% DMSO. Control cultures received 0.1% DMSO only. Cultures were fed on days 6, 7 and 9 of the experiment with the drugs or with solvent-containing media.
[…] For counting, cells were detached from plates with trypsin/EDTA, and collected by a low speed spin in the presence of DMEM/10% FCS. The pelleted cells were resuspended in a small volume of DMEM/10% FCS and counted under the microscope. Viability of cells was estimated by staining with (3-(4,5-dimethylthiosol-2-yl)-2,5-diphenyltetrazolium bromide (MTT) and microscopic examination of the stained and unstained cells, or spectrophotometric estimation (OD490, 590) of the total stain in each well. Non viable cells were estimated by the trypan blue exclusion method.
Cells were plated at a density 2×10^3/well and received either solvent or drugs one day later. Following 3, 7, or 10 days of the drugs-treatment as described above, cells were collected and the number of cells in each well was estimated by direct counting. […]

[4] = Table II, given as range, read-out: Ki
[5] = from FIG. 2 curves, 100 μM AFC, read-out: inhibition constant (Ki)

T2 sequence (Q9EQK7 whole entry): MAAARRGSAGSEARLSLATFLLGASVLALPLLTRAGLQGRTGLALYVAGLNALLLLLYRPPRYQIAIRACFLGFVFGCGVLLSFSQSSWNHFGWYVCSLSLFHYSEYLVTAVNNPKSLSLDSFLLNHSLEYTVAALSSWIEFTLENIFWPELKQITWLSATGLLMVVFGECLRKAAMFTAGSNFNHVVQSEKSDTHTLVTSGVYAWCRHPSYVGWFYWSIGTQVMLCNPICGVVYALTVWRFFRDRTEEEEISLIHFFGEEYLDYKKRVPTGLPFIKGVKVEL
T1 sequence (Q9WVM4 whole entry): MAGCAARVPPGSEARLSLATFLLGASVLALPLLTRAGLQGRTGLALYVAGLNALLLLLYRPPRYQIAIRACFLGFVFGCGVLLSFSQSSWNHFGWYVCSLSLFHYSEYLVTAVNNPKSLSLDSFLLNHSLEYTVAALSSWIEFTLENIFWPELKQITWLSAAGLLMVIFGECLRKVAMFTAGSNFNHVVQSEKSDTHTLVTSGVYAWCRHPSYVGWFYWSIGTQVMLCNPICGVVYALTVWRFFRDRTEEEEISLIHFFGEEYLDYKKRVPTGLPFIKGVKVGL

CC(C)=CCC/C(C)=C/CC/C(C)=C/CSCC(=O)O [FTA, S-trans, trans-farnesylthioacetic acid, reference compound]
[3H-methyl]ester formed ([1]; 100 μM AFC + 200 μM inhibitor): 320 ± 50 cpm/assay | pIC50 ([1]; 100 μM AFC): 4.64 | pKi [1, 4]: 4.98 to 5.24 | pKi [1, 5]: 5.40 | % Inhibition [2]: 38% | PPMTase activity [2]: 1.3 pmol/min/mg protein | effect on the growth of normal rat1 cells [3]: neither FTA nor FTS has any significant effect

CC(C)=CCC/C(C)=C/CC/C(C)=C/CSc1ccccc1C(=O)O [FTS, (3,7,11-trimethyl-dodeca-2,6,10-trienyl)-2-thiobenzoic acid]
serves as substrate for PPMTase methylation [1]: does not serve as a substrate | [3H-methyl]ester formed ([1]; 100 μM AFC + 200 μM inhibitor): 280 ± 30 cpm/assay | pIC50 ([1]; 100 μM AFC): 5.00 | [3H-methyl]ester formed ([1]; 200 μM of the substance alone as substrate): 30 ± 10 cpm/assay | pKi [1, 4]: 5.38 to 5.82 | pKi [1, 5]: 5.82 | % Inhibition [2]: 50% | PPMTase activity [2]: 1.7 pmol/min/mg protein | effect on the growth of normal rat1 cells [3]: neither FTA nor FTS has any significant effect | Number of cells (% of control) ([3]; Ras1, 25 μM, day 5): 97 ± 10 % of control
